Values after ≈ are worked out from the molar mass of the structure shown.
Experiments:
Actinomyces naeslundii = assay: Antimicrobial activity determination (MIC); format: cell-based; settings: BHI broth, aerobic, 37 degrees C, read-out: Minimimum Inhibitory Concentrations
Description: (§1) The antimicrobial activity of the targeted agents was assessed by determining the minimum inhibitory concentration (MIC). Pure cultures of various strains of oral bacterial species as indicated in Table 3 were combined with serial dilutions of the targeted agents in beef heart infusion broth (BHI); starting bacterial concentrations were approximately 1.0 x 10E6 colony forming units (CFU) per ml. The mixtures were incubated aerobically at 37 degrees C and the optical density (540 nm, path length 1cm) of the cultures was measured at 0.0, 24.0 and 48.0 hr using Bausch and Lomb Spec 20 variable wavelength spectrophotometer.

Candida albicans = assay: Antimicrobial activity determination (MIC); format: cell-based; settings: BHI broth, aerobic, 37 degrees C, read-out: Minimimum Inhibitory Concentrations
Description: as §1

Neisseria subflava = assay: Antimicrobial activity determination (MIC); format: cell-based; settings: BHI broth, aerobic, 37 degrees C, read-out: Minimimum Inhibitory Concentrations
Description: as §1

Porphyromonas gingivalis = assay: Antimicrobial activity determination (MIC); format: cell-based; settings: BHI broth, aerobic, 37 degrees C, read-out: Minimimum Inhibitory Concentrations
Description: as §1

Prevotella intermedius = assay: Antimicrobial activity determination (MIC); format: cell-based; settings: Prevotella intermedius; BHI broth, aerobic, 37 degrees C; read-out: Minimimum Inhibitory Concentrations
Description: as §1

Streptococcus sanguis = assay: Antimicrobial activity determination (MIC); format: cell-based; settings: Streptococcus, Streptococcus sanguis; BHI broth, aerobic, 37 degrees C; read-out: Minimimum Inhibitory Concentrations
Description: as §1

Streptococcus sobrinus = assay: Antimicrobial activity determination (MIC); format: cell-based; settings: BHI broth, aerobic, 37 degrees C, read-out: Minimimum Inhibitory Concentrations
Description: as §1

Veillonella dispar = assay: Antimicrobial activity determination (MIC); format: cell-based; settings: BHI broth, aerobic, 37 degrees C, read-out: Minimimum Inhibitory Concentrations
Description: as §1

[1] = Krafft point of a 1% dispersion in water; format: physicochemical; settings: 1% dispersion of the surfactant in water
Description: The temperature at and above which surfactants begin to form micelles instead of precipitates is referred to as Krafft point (Tk) and at this temperature the solubility of a surfactant becomes equal to its CMC.
Krafft point was measured by preparing a 1% dispersion of the surfactant in water. If the surfactant was soluble at room temperature, the solution was cooled to 0°C. […] If it precipitated out, the solution was slowly warmed with stirring in a water bath. The temperature at which the precipitate dissolved was determined to be the Krafft point.
If the Krafft point was above room temperature, the solution was first heated rapidly to dissolve all the surfactant. It was then cooled until precipitation occurred, and was then slowly warmed to determine the Krafft point described above.

[2] = Foam height, Ross-Miles method; format: physicochemical; settings: 45°C, water with 120 ppm hardness
Description: Since most of the foaming data on surfactants is typically obtained by the Ross-Miles method (Ross, J. and Miles, G.D., am. Soc. for Testing Material Method D1173-53 Philadelphia, PA. (1953); Oil & Soap (1958) 62:1260) the foaming ability of these surfactants was also acquired using this method.
In the Ross-Miles method, 200 mL of a solution of surfactant contained in a pipette of specified dimensions with a 2.9-mm-i.d. orifice is allowed to fall 90 cm onto 50 mL of the same solution contained in a cylindrical vessel maintained at a given temperature (often 60°C) by means of a water jacket. The height of the foam produced in the cylindrical vessel is read immediately after all the solution has run out of the pipette (initial foam height) and then again after a given amount of time (generally, 5 min).
Using this method, the foam production (measured initially) and foam stability (the height after 10 minutes) are reported. […] The foam height is represented in millimeters (mm).

## CCCCCCCCCCCCNC(=O)[C@H](O)[C@@H](O)[C@H](O[C@@H]1O[C@H](CO)[C@H](O)[C@H](O)[C@H]1O)[C@H](O)CO [Dodecyl lactobionamide, N-dodecyl lactobionamide]
Actinomyces naeslundii
  MIC: 60 µg/mL (≈ 114 µM)
Candida albicans
  MIC: 125 µg/mL (≈ 238 µM)
Neisseria subflava
  MIC: 250 µg/mL (≈ 476 µM)
Porphyromonas gingivalis
  MIC: 30 µg/mL (≈ 57.1 µM)
Prevotella intermedius
  MIC: 250 µg/mL (≈ 476 µM)
Streptococcus sanguis
  MIC: 125 µg/mL (≈ 238 µM)
Streptococcus sobrinus
  MIC: 125 µg/mL (≈ 238 µM)
Veillonella dispar
  MIC: 60 µg/mL (≈ 114 µM)
[1]
  Krafft Point: 38 °C
[2]; foam production, measured initially
  Initial Height: 160 mm
[2]; foam stability, height after 10 minutes
  After 10 Minutes: 6 mm

Reference: patent EP0551675A1, “Oral hygiene compositions containing antiplaque agents” (UNILEVER N.V., priority 1991, dated 1993)
